Reference: BindingDB's records for doi:10.1111/j.1747-0285.2005.00317.x (Abbott Laboratories, 2006)

Molecular target: T1, UDP-N-acetylmuramoyl-tripeptide--D-alanyl-D-alanine ligase (Streptococcus pneumoniae (strain ATCC BAA-255 / R6), UniProt Q8DNV6)
T1 sequence (Q8DNV6 whole entry): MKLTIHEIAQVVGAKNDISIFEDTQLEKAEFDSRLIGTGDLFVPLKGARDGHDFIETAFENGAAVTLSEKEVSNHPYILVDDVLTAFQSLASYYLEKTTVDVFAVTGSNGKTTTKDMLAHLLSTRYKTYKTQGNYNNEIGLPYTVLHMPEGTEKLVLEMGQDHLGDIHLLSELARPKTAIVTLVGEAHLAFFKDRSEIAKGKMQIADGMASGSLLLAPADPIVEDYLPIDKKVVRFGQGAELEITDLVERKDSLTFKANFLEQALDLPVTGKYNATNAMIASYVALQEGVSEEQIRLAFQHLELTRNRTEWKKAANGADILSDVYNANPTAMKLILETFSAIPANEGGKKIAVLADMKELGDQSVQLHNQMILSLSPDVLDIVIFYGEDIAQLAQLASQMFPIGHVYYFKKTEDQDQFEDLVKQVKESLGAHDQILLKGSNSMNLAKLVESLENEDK
Assay: Inhibition Assay
Source text: Inhibition of D-Ala-D-Ala adding enzyme (MurF) from Streptococcus pneumoniase.

| Compound | IC50 [µM] |
| --- | --- |
| N#Cc1c(NC(=O)c2cc(S(=O)(=O)C3CCOCC3)ccc2Cl)sc2c1CCC2 [MurF inhibitor, 3] | 9 |
| N#Cc1c(NC(=O)c2cc(S(=O)(=O)NCCCCO)ccc2Cl)sc2c1CCC2 [MurF inhibitor, 4] | 22 |
| N#Cc1c(NC(=O)c2cc(S(=O)(=O)N3CCCCC3)ccc2Cl)sc2c1CCCC2 [MurF inhibitor, 5] | 2.5 |
| N#Cc1c(NC(=O)c2cc(S(N)(=O)=O)ccc2Cl)sc2c1CCC2 [MurF inhibitor, 6] | 78 |
| CCN(CC)S(=O)(=O)c1ccc(Cl)c(C(=O)Nc2sccc2C#N)c1 [MurF inhibitor, 12] | 151 |
| CCN(CC)S(=O)(=O)c1ccc(Cl)c(C(=O)Nc2sc(Br)cc2C#N)c1 [MurF inhibitor, 13] | 12.6 |
| N#Cc1cc(CCc2ccccn2)sc1NC(=O)c1cc(S(=O)(=O)N2CCOCC2)ccc1Cl [MurF inhibitor, 14] | 6 |
| CCN(CC)S(=O)(=O)c1cc(C(=O)Nc2sc3c(c2C#N)CCC(c2ccc(O)cc2)C3)c(Cl)cc1Cl (stereo not drawn) [MurF inhibitor, 15] | 0.07 |
